The text below walks through data of EP4205733B1, “COMPOSITION FOR THE TREATMENT OF OSTEOPENIA AND OSTEOPOROSIS” (MIVELL S.R.L.S., priority 2021, dated 2023).

The nature of one series: Solubility test. The format is physicochemical. An excerpt:
Before proceeding with the cellular assays, the two ingredients have been tested for their solubility in several solvents, with the aim of identifying the best solubilizing agent (Table 2).

The next series relates to MCP-1. Nature of the series: RTqPCR of mRNA levels of inflammatory cytokine MCP-1. Particulars: senescent BM-MSCs, 48h, vs untreated senescent BM-MSCs. The format is cell-based, human. Here is the method: (§1) The experiments were conducted on mesenchymal stromal cells obtained from the bone marrow of a donor: BM-MSCs (Promocell). BM-MSCs were cultured in medium maintenance MSC-GM2 (PromoCell) with the addition of Supplement Mix and Penicillin-Streptomycin 1%, in humid atmosphere at 37°C, with 5% CO2. The proliferative capacity of this cell model was evaluated and characterized and the cellular senescence was assessed using p16, p21 expression and beta-galactosidase activity (data not shown). […]
(§2) The anti-inflammatory activity of the individual ingredients and the synergy between them have been assessed by the measurement of mRNA levels of the cytokines involved in inflammatory processes: IL-1β, IL-6, IL-8 and MCP-1 [Lencel et al., 2011; Mulholland et al., 2019]. […]
(§3) The pro-osteogenic activity of the individual components (pro-mineralizing and anti-inflammatory) and their combination was firstly determined through the analysis of the modulation of the mRNA levels of the osteogenic marker COL1α1 in young BM-MSCs cells. […] Furthermore, the pro-mineralizing and anti-inflammatory activity of the individual components and their combination was determined through the analysis of the modulation of the mRNA levels of the osteogenic marker ALP and of the pro-inflammatory markers IL-1β and MCP-1 in senescent BM-MSCs cells. […]
(Real-time PCR tracks product formation cycle by cycle.)

Another series concerns IL-1β. Nature of the series: RTqPCR of mRNA levels of inflammatory cytokine IL-1β. The following applies: senescent BM-MSCs, 48h, vs untreated senescent BM-MSCs. Format: cell-based, human. The protocol: as §1, §2, §3

Turning to `CC(C)=CCC/C(C)=C/CC/C(C)=C/CC/C(C)=C/CC/C(C)=C/CC/C(C)=C/CC/C(C)=C/CC1=C(C)C(=O)c2ccccc2C1=O` [Vitamin K2, Menaquinone-7], the “Solubility test results: Organic solvents” value in the series “Solubility test” (organic solvents) is reported as “Not soluble”. The “Solubility test results: Cremophor” value in “Solubility test” (solvent Cremophor) was “Soluble”. Moreover, in “Solubility test” (solvent DMSO), the “Solubility test results: DMSO” value was “Not soluble”. Besides, the “Solubility test results: PBS” value in “Solubility test” (solvent PBS) is “Not soluble”.

Take `OC[C@H]1O[C@@H](Oc2cc(O)cc(/C=C/c3ccc(O)cc3)c2)[C@H](O)[C@@H](O)[C@@H]1O` [polydatin]: the “MCP-1 mRNA levels” value in the series with MCP-1 is given as “significantly decrease”. In addition, the “IL-1β mRNA levels” value in the series with IL-1β is listed as “significantly decrease”.
